Test results taken from ChEMBL document CHEMBL1201862, “PubChem BioAssay data set” (2004).
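Where inhibition never reached the appropriate level, the endpoint shown equals the highest concentration tested. Otherwise, values were interpolated linearly from a five-concentration, 48-hour dose response in 96-well plates. Here, GI50 denotes the concentration required for 50% inhibition of growth.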 The source made the active and inactive calls. Cut-off read from the data, not from the text of the source: active = GI50 up to about 1.1 µM and inactive = higher.

Assays:
Assay in all cases: inhibition of tumour cell growth, NCI panel, 48 h
[1] = system: NCI-H460
[2] = system: HCT-15
[3] = system: NCI-H226
[4] = system: K562
[5] = system: BT-549
[6] = system: SN12C
[7] = system: HOP-92
[8] = system: NCI-H522
[9] = system: NCI/ADR-RES
[10] = system: SR
[11] = system: A549
[12] = system: DU-145
[13] = system: MCF7
[14] = system: SF-539
[15] = system: CAKI-1
[16] = system: 786-0
[17] = system: RPMI-8226
[18] = system: EKVX
[19] = system: ACHN
[20] = system: UO-31

Row | SMILES | GI50 [1] | GI50 [2] | GI50 [3] | GI50 [4] | GI50 [5] | GI50 [6] | GI50 [7] | GI50 [8] | GI50 [9] | GI50 [10] | GI50 [11] | GI50 [12] | GI50 [13] | GI50 [14] | GI50 [15] | GI50 [16] | GI50 [17] | GI50 [18] | GI50 [19] | GI50 [20]
1 | O=[N+]([O-])c1ccc(Cl)cc1/C=N/C12CC3CC(CC(C3)C1)C2 | > 74 µM (inactive) | 25.6 µM | 61.5 µM (inactive) | 4.98 µM (inactive) | > 55.7 µM (inactive) | 51.6 µM (inactive) | 79.1 µM (inactive) | > 100 µM (inactive) | 30.1 µM (inactive) | 7.03 µM (inactive) | > 96.8 µM (inactive) | > 100 µM (inactive) | 31.3 µM (inactive) | 31.7 µM (inactive) | > 100 µM (inactive) | 41.1 µM (inactive) | 20.2 µM (inactive) | > 100 µM (inactive) | > 87.9 µM (inactive) | 76.7 µM (inactive)
2 | CC(=O)Nc1ccc(Cc2ccc3nc(O)cc(C)c3c2)cc1 | 62.1 µM (inactive) | > 100 µM | > 100 µM (inactive) | > 100 µM (inactive) | > 100 µM (inactive) | 64.6 µM (inactive) | > 100 µM (inactive) | 48.8 µM (inactive) | > 100 µM (inactive) | > 100 µM (inactive) | > 100 µM (inactive) | 32.5 µM (inactive) | 81.5 µM (inactive) | 68.7 µM (inactive) | 63.5 µM (inactive) | 24.3 µM (inactive) | 17.2 µM (inactive) | 65.3 µM (inactive) | 50.8 µM (inactive) | > 100 µM (inactive)
3 | CC1(C)NC2C(=O)c3c([nH]c4ccccc34)[C@]3(C)CCC1CC23 (stereo not given in full) | > 100 µM (inactive) | 83 µM | > 100 µM (inactive) | 96.8 µM (inactive) | > 100 µM (inactive) | > 100 µM (inactive) | 61.7 µM (inactive) | > 100 µM (inactive) | > 100 µM (inactive) | 55.2 µM (inactive) | > 100 µM (inactive) | > 100 µM (inactive) | > 100 µM (inactive) | > 100 µM (inactive) | > 100 µM (inactive) | > 100 µM (inactive) | 82.8 µM (inactive) | > 100 µM (inactive) | > 100 µM (inactive) | > 100 µM (inactive)
4 | Nc1nc(Sc2ccc([N+](=O)[O-])c3nonc23)c2nc[nH]c2n1 | 0.627 µM (active) | 1.89 µM | 1.75 µM (inactive) | 0.369 µM (active) | 2.07 µM (inactive) | 1.97 µM (inactive) | 2.56 µM (inactive) | 0.733 µM (active) | 0.495 µM (active) | 0.0822 µM (active) | 3.69 µM (inactive) | 0.705 µM (active) | 0.593 µM (active) | 1.53 µM (inactive) | 0.36 µM (active) | 0.489 µM (active) | 0.31 µM (active) | 1.85 µM (inactive) | 2.22 µM (inactive) | 0.716 µM (active)
5 | O=C(CN1CCNCCN(CC(=O)N2CCCCC2)CCNCC1)N1CCCCC1 | 43 µM (inactive) | > 100 µM | > 100 µM (inactive) | 40.3 µM (inactive) | > 100 µM (inactive) | > 100 µM (inactive) | > 100 µM (inactive) | 40.6 µM (inactive) | > 100 µM (inactive) | 34.4 µM (inactive) | 50.8 µM (inactive) | > 100 µM (inactive) | > 100 µM (inactive) | > 100 µM (inactive) | > 100 µM (inactive) | 43.6 µM (inactive) | > 100 µM (inactive) | > 100 µM (inactive) | > 100 µM (inactive) | > 100 µM (inactive)
6 | CC12CCC(C(Br)(Br)C1=O)C2(C)C (stereo not given) | 4.05 µM (inactive) | 0.164 µM | 2.03 µM (inactive) | < 0.0202 µM (active) | 0.173 µM (active) | 0.904 µM (active) | 0.617 µM (active) | 0.0208 µM (active) | 0.131 µM (active) | < 0.01 µM (active) | 4.07 µM (inactive) | 6.08 µM (inactive) | 0.082 µM (active) | 2.94 µM (inactive) | 1.8 µM (inactive) | 0.0545 µM (active) | 0.0759 µM (active) | 0.493 µM (active) | 0.553 µM (active) | 0.48 µM (active)
7 | OC(c1cc(-c2ccccc2)nc2c1ccc1ccccc12)C1CCCCN1 (stereo not given) | 1.79 µM (inactive) | 2.12 µM | 2.95 µM (inactive) | 2.54 µM (inactive) | 3.97 µM (inactive) | 1.62 µM (inactive) | 1.62 µM (inactive) | 1.58 µM (inactive) | 2.1 µM (inactive) | 1.18 µM (inactive) | 1.85 µM (inactive) | 2.02 µM (inactive) | 1.87 µM (inactive) | 1.92 µM (inactive) | 1.91 µM (inactive) | 1.64 µM (inactive) | 1.12 µM (active) | 1.93 µM (inactive) | 1.83 µM (inactive) | 1.02 µM (active)
8 | COC(=O)C1=C(C)NC(C)=C(C(=O)OC)C1c1ccc(N=O)cc1 | 18.9 µM (inactive) | 9.53 µM | 16 µM (inactive) | 1.07 µM (active) | 8.87 µM (inactive) | 19.5 µM (inactive) | 2.54 µM (inactive) | 1.15 µM (inactive) | 20.8 µM (inactive) | 0.776 µM (active) | 24.5 µM (inactive) | 12.9 µM (inactive) | 17.9 µM (inactive) | 17.7 µM (inactive) | 8.3 µM (inactive) | 14.6 µM (inactive) | 1.58 µM (inactive) | 17 µM (inactive) | 13.8 µM (inactive) | 13.2 µM (inactive)
9 | O=C(O)c1nn(-c2ccccc2-c2nnc(O)nc2O)c(=O)[nH]c1=O | > 100 µM (inactive) | > 100 µM | > 100 µM (inactive) | 2.47 µM (inactive) | > 100 µM (inactive) | > 100 µM (inactive) | > 100 µM (inactive) | > 100 µM (inactive) | > 100 µM (inactive) | > 100 µM (inactive) | > 100 µM (inactive) | > 100 µM (inactive) | > 100 µM (inactive) | > 100 µM (inactive) | > 100 µM (inactive) | > 100 µM (inactive) | > 100 µM (inactive) | > 100 µM (inactive) | > 100 µM (inactive) | > 100 µM (inactive)
10 | CO[C@@H]1C[C@H]2[C@@H]3CC[C@H]([C@@H](C)COC(C)=O)[C@@]3(C)CC[C@@H]2[C@@]2(C)CC[C@H]3C[C@]312 | 10.1 µM (inactive) | 13.3 µM | 17.9 µM (inactive) | 10.2 µM (inactive) | 14.2 µM (inactive) | 16.5 µM (inactive) | 19.9 µM (inactive) | 16.2 µM (inactive) | 14.1 µM (inactive) | 10 µM (inactive) | 15.9 µM (inactive) | 14 µM (inactive) | 9.48 µM (inactive) | 17.5 µM (inactive) | 9.12 µM (inactive) | 16.5 µM (inactive) | 8.67 µM (inactive) | 14.5 µM (inactive) | 16.6 µM (inactive) | 18.5 µM (inactive)
11 | O=C(O)C1CCCN1C(=O)c1cc(Cl)ccn1 (stereo not given) | > 100 µM (inactive) | > 100 µM | > 100 µM (inactive) | > 100 µM (inactive) | > 100 µM (inactive) | > 100 µM (inactive) | > 100 µM (inactive) | > 100 µM (inactive) | > 100 µM (inactive) | > 100 µM (inactive) | > 100 µM (inactive) | > 100 µM (inactive) | > 100 µM (inactive) | > 100 µM (inactive) | > 100 µM (inactive) | > 100 µM (inactive) | > 100 µM (inactive) | > 100 µM (inactive) | > 100 µM (inactive) | > 100 µM (inactive)
